Experimental data as given in the NIST ThermoML archive (doi:10.1007/s10765-009-0581-7).

Assay: xn = mol fraction of the nth substance listed
Settings: for surface tension liquid-gas: Ring tensiometer; for mass density: 101 kPa, Liquid

CC#N [acetonitrile] + CCCO
Settings | mass density, 278.15 K [kg/m3] | mass density, 283.15 K [kg/m3] | mass density, 288.15 K [kg/m3] | mass density, 293.15 K [kg/m3] | surface tension liquid-gas, 278.15 K [mN/m] | surface tension liquid-gas, 283.15 K [mN/m] | surface tension liquid-gas, 288.15 K [mN/m] | surface tension liquid-gas, 293.15 K [mN/m]
x1 = 0.1255 | 813.41 | 809.44 | 805.55 | 799.41 | 25.2 | 24.8 | 24.4 | 24
x1 = 0.2452 | 810.66 | 806.61 | 802.64 | 796.56 | 25.4 | 25 | 24.7 | 24.3
x1 = 0.3466 | 808.33 | 804.22 | 800.18 | 794.15 | 25.8 | 25.4 | 25 | 24.6
x1 = 0.4995 | 804.81 | 800.61 | 796.46 | 790.51 | 26.5 | 26.1 | 25.7 | 25.3
x1 = 0.6449 | 801.47 | 797.18 | 792.93 | 787.05 | 27.4 | 27 | 26.6 | 26.2
x1 = 0.7492 | 799.07 | 794.72 | 790.39 | 784.57 | 28.1 | 27.7 | 27.3 | 26.9
x1 = 0.8645 | 796.42 | 792 | 787.59 | 781.82 | 29.1 | 28.7 | 28.3 | 27.9
x1 = 0.9101 | 795.37 | 790.92 | 786.48 | 780.74 | 29.5 | 29.1 | 28.7 | 28.3
x1 = 1 | 793.3 | 788.8 | 784.3 | 778.3 | 30.5 | 30.1 | 29.7 | 29.3
